Molecular target: T1, human soluble guanylate cyclase alpha 1 and beta 1 subunits (sGC) (Homo sapiens, UniProt Q02108+Q02153)
T1 construct: expressed in transfected cells; host or cells: Chinese hamster ovary (CHO) cells, stably transfected
T1 sequence (Q02108 1-690): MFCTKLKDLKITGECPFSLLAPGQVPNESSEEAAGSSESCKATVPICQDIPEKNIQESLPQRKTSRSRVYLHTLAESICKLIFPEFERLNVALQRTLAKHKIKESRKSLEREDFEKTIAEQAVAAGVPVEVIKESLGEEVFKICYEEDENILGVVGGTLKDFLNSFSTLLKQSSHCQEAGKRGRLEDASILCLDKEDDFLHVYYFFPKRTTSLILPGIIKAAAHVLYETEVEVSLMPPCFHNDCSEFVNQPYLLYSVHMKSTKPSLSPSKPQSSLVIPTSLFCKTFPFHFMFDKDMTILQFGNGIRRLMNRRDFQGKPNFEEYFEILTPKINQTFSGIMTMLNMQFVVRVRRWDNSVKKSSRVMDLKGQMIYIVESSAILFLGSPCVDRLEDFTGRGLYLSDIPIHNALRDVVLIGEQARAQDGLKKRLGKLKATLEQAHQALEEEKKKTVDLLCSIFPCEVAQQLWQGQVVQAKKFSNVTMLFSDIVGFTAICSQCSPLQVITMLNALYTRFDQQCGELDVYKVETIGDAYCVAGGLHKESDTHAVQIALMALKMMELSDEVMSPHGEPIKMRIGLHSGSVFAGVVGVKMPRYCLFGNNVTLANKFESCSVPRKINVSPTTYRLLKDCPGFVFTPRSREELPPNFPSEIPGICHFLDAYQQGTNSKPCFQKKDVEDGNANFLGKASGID
T1 sequence (Q02153 1-619): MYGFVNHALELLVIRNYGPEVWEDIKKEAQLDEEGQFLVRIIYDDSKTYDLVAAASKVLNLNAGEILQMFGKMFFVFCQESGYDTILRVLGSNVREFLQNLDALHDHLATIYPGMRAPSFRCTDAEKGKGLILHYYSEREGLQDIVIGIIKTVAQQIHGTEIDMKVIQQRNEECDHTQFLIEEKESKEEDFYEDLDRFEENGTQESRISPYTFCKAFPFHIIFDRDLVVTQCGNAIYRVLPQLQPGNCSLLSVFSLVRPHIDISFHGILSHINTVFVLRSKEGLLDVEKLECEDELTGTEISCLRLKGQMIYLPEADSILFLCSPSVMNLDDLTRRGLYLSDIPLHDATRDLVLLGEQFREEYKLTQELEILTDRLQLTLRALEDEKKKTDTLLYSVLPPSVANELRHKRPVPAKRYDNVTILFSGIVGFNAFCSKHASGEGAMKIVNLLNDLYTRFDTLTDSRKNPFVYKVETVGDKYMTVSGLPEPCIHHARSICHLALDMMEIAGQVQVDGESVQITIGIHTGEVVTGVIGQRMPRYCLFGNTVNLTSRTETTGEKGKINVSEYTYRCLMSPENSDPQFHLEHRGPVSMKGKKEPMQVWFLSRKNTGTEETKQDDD
Test: sGC cellular activator assay (cGMP, HTRF)
Assay type: cell-based
Conditions: CHO cells stably expressing human sGC alpha 1/beta 1, preincubated with 40 microM ODQ; cGMP readout; assay run with and without 50% human serum, Table 2 does not say which
Method in brief: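 First, CHO-sGC (human α1β1) cells get 1 h ODQ at 40 microM with IBMX and 0.1% BSA. Finally, cGMP is quantified by HTRF and EC50 computed.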

Compound	EC50 [nM]
COCC(C)N1CCc2cc(COc3c(C)cccc3-c3cccc(-n4ncc(C(=O)O)c4OC(C)C)n3)ccc2C1 (centres unmarked) [Compound 38]	66
COc1c(C(=O)O)cnn1-c1cccc(-c2cccc(C)c2OCc2ccc3c(c2)CCN(C2CCOC(C)(C)C2)C3)n1 (centres unmarked) [Compound 61]	59
Cc1cccc(-c2cccc(-n3ncc(C(=O)O)c3OC(C)C)n2)c1OCc1ccc2c(c1C)CCN(C1COC1)C2 [Compound 45]	26
COc1c(C(=O)O)cnn1-c1cccc(-c2cccc(C)c2OCc2ccc3c(c2)CCN(C2CCOCC2)C3)n1 [Compound 3]	29
COc1c(C(=O)O)cnn1-c1cccc(-c2cccc(C)c2OCc2ccc3c(c2)CCN(CCS(C)(=O)=O)C3)n1 [Compound 74]	73
COc1c(C(=O)O)cnn1-c1cccc(-c2cccc(C(F)(F)F)c2OCc2ccc3c(c2)CCN(C2CCOCC2)C3)n1 [Compound 83]	29
Cc1cccc(-c2cccc(-n3ncc(C(=O)O)c3OC(C)C)n2)c1OCc1ccc2c(c1)CCN(C1CCOC1)C2 (centres unmarked) [Compound 41]	27
CCOc1c(C(=O)O)cnn1-c1cccc(-c2cccc(Cl)c2OCc2ccc3c(c2)CCN(C(C)CO)C3)n1 (centres unmarked) [Compound 56]	820
CCOc1c(C(=O)O)cnn1-c1cccc(-c2cccc(Cl)c2OCc2ccc3c(c2)CCNC3)n1 [Compound 50]	990
Cc1cccc(-c2cccc(-n3ncc(C(=O)O)c3OC(C)C)n2)c1OCc1ccc2c(c1)CCN(C1COC1)C2 [Compound 39]	17
COc1c(C(=O)O)cnn1-c1cccc(-c2cccc(C)c2OCc2ccc3c(c2)CCN(C2CC(C)(C)OC(C)(C)C2)C3)n1 [Compound 73]	250
COc1c(C(=O)O)cnn1-c1cccc(-c2cccc(C)c2OCc2ccc3c(c2)CN(CC2CC(F)(F)C2)C3)n1 [Compound 82]	8
CCOc1c(C(=O)O)cnn1-c1cccc(-c2cccc(C)c2OCc2ccc3c(c2)CCN(C2CCOC2C)C3)n1 (centres unmarked) [Compound 71]	67
COc1c(C(=O)O)cnn1-c1cccc(-c2cccc(C)c2OCc2ccc3c(c2)C(C)(C)CN(C2CCOCC2)C3)n1 [Compound 89]	150
CCOc1c(C(=O)O)cnn1-c1cccc(-c2cccc(C)c2OCc2ccc3c(c2)CCN(CC2CCOC(C)(C)C2)C3)n1 (centres unmarked) [Compound 80]	45
COc1c(C(=O)O)cnn1-c1cccc(-c2cccc(C)c2OCc2ccc3c(c2)CN(C2COC2)C3)n1 [Compound 85]	22
COCC(C)N1CCc2c(ccc(COc3c(C)cccc3-c3cccc(-n4ncc(C(=O)O)c4OC(C)C)n3)c2C)C1 (centres unmarked) [Compound 44]	44
COc1c(C(=O)O)cnn1-c1cccc(-c2cccc(C)c2OCc2ccc3c(c2)CCN(C2CCOCC2OC)C3)n1 (centres unmarked) [Compound 81]	410
CCOc1c(C(=O)O)cnn1-c1cccc(-c2cccc(C)c2OCc2ccc3c(c2)CCN(C2CCOC(CC)C2)C3)n1 (centres unmarked) [Compound 79]	33
COc1c(C(=O)O)cnn1-c1cccc(-c2cccc(F)c2OCc2ccc3c(c2)CCN(C2CCOCC2)C3)n1 [Compound 63]	82
Cc1cccc(-c2cccc(-n3ncc(C(=O)O)c3OC(C)C)n2)c1OCc1ccc2c(c1)CCN(C(C)C)C2 [Compound 37]	120
COc1c(C(=O)O)cnn1-c1cccc(-c2cccc(C(F)(F)F)c2OCc2ccc3c(c2)CN(C2CCOCC2)C3)n1 [Compound 93]	37
COc1c(C(=O)O)cnn1-c1cccc(-c2cccc(C)c2OCc2ccc3c(c2C)CCN(C2CCOC2)C3)n1 (centres unmarked) [Compound 31]	19

Source: patent publication US8906904B2, “Alkoxy pyrazoles as soluble guanylate cyclase activators” (Boehringer Ingelheim International GmbH, priority 2012, dated 2014)
